Reference: patent publication US5216005A, “Immunosuppressive analogues and derivatives of succinylacetone” (priority 1990, dated 1993)

System: peripheral blood lymphocytes
Test: viability of peripheral blood lymphocytes with or without PHA, trypan blue exclusion
Format: cell-based, human
Method: Viability was determined using the trypan blue exclusion method well known in the art. […] The assays were conducted in duplicate wherein peripheral blood lymphocytes were isolated from two separate individuals, and then treated with or without phytohemagglutinin in the presence of various concentrations of the appropriate succinylacetone derivative.

[1] = first individual, (+) PHA, 3 μM
[2] = first individual, (+) PHA, 9 μM
[3] = first individual, (+) PHA, 27 μM
[4] = first individual, (+) PHA, 81 μM
[5] = first individual, (+) PHA, 244 μM
[6] = first individual, (+) PHA, 733 μM
[7] = first individual, (+) PHA, 2.2 mM
[8] = first individual, (+) PHA, 6.7 mM
[9] = first individual, (-) PHA, 3 μM
[10] = first individual, (-) PHA, 9 μM
[11] = first individual, (-) PHA, 27 μM
[12] = first individual, (-) PHA, 81 μM
[13] = first individual, (-) PHA, 244 μM
[14] = first individual, (-) PHA, 733 μM
[15] = first individual, (-) PHA, 2.2 mM
[16] = first individual, (-) PHA, 6.7 mM
[17] = second individual, (+) PHA, 3 μM
[18] = second individual, (+) PHA, 9 μM
[19] = second individual, (+) PHA, 27 μM
[20] = second individual, (+) PHA, 81 μM
[21] = second individual, (+) PHA, 244 μM
[22] = second individual, (+) PHA, 733 μM
[23] = second individual, (+) PHA, 2.2 mM
[24] = second individual, (+) PHA, 6.7 mM
[25] = second individual, (-) PHA, 3 μM
[26] = second individual, (-) PHA, 9 μM
[27] = second individual, (-) PHA, 27 μM
[28] = second individual, (-) PHA, 81 μM
[29] = second individual, (-) PHA, 244 μM
[30] = second individual, (-) PHA, 733 μM
[31] = second individual, (-) PHA, 2.2 mM
[32] = second individual, (-) PHA, 6.7 mM

**Q.** For `COC(=O)CCC(C(C)=O)C(C)=O` [Methyl 4-Acetyl-5-Oxohexanoate, methyl 4-acetyl-5-oxohexanoate], which toxicity (as high as 20 mM) is on record?
**A.** The toxicity was “no toxicity”.

**Q.** And the Cells/ml [1]?
**A.** Its Cells/ml is 0.45 X 10^6 Cells/ml.

**Q.** And the Cells/ml [2]?
**A.** The Cells/ml was 0.47 X 10^6 Cells/ml.

**Q.** And the Cells/ml [3]?
**A.** The Cells/ml was 0.46 X 10^6 Cells/ml.

**Q.** And the Cells/ml [4]?
**A.** The Cells/ml was 0.38 X 10^6 Cells/ml.

**Q.** And the Cells/ml [5]?
**A.** The Cells/ml was 0.44 X 10^6 Cells/ml.

**Q.** And the Cells/ml [6]?
**A.** The Cells/ml was 0.38 X 10^6 Cells/ml.

**Q.** What about the Cells/ml [7] of the same compound?
**A.** Its Cells/ml is 0.49 X 10^6 Cells/ml.

**Q.** And the Cells/ml [8]?
**A.** The Cells/ml was 0.46 X 10^6 Cells/ml.

**Q.** And the Cells/ml (first individual, (+) PHA, 20 mM)?
**A.** Its Cells/ml is 0.49 X 10^6 Cells/ml.

**Q.** And the Cells/ml [9]?
**A.** Its Cells/ml is 0.39 X 10^6 Cells/ml.

**Q.** What about the Cells/ml [10] of the same compound?
**A.** Its Cells/ml is 0.55 X 10^6 Cells/ml.

**Q.** And the Cells/ml [11]?
**A.** Its Cells/ml is 0.44 X 10^6 Cells/ml.

**Q.** And the Cells/ml [12]?
**A.** The Cells/ml was 0.42 X 10^6 Cells/ml.

**Q.** What about the Cells/ml [13] of the same compound?
**A.** Its Cells/ml is 0.40 X 10^6 Cells/ml.

**Q.** What about the Cells/ml [14] of the same compound?
**A.** The Cells/ml was 0.37 X 10^6 Cells/ml.

**Q.** What about the Cells/ml [15] of the same compound?
**A.** Its Cells/ml is 0.57 X 10^6 Cells/ml.

**Q.** And the Cells/ml [16]?
**A.** Its Cells/ml is 0.57 X 10^6 Cells/ml.

**Q.** And the Cells/ml (first individual, (-) PHA, 20 mM)?
**A.** The Cells/ml was 0.5 X 10^6 Cells/ml.

**Q.** What about the Cells/ml [17] of the same compound?
**A.** Its Cells/ml is 0.40 X 10^6 Cells/ml.

**Q.** And the Cells/ml [18]?
**A.** The Cells/ml was 0.50 X 10^6 Cells/ml.

**Q.** What about the Cells/ml [19] of the same compound?
**A.** The Cells/ml was 0.50 X 10^6 Cells/ml.

**Q.** What about the Cells/ml [20] of the same compound?
**A.** Its Cells/ml is 0.40 X 10^6 Cells/ml.

**Q.** What about the Cells/ml [21] of the same compound?
**A.** The Cells/ml was 0.54 X 10^6 Cells/ml.

**Q.** And the Cells/ml [22]?
**A.** Its Cells/ml is 0.40 X 10^6 Cells/ml.

**Q.** And the Cells/ml [23]?
**A.** The Cells/ml was 0.50 X 10^6 Cells/ml.

**Q.** And the Cells/ml [24]?
**A.** Its Cells/ml is 0.50 X 10^6 Cells/ml.

**Q.** And the Cells/ml (second individual, (+) PHA, 20 mM)?
**A.** Its Cells/ml is 0.55 X 10^6 Cells/ml.

**Q.** And the Cells/ml [25]?
**A.** Its Cells/ml is 0.44 X 10^6 Cells/ml.

**Q.** What about the Cells/ml [26] of the same compound?
**A.** The Cells/ml was 0.52 X 10^6 Cells/ml.

**Q.** And the Cells/ml [27]?
**A.** The Cells/ml was 0.50 X 10^6 Cells/ml.

**Q.** What about the Cells/ml [28] of the same compound?
**A.** Its Cells/ml is 0.46 X 10^6 Cells/ml.

**Q.** What about the Cells/ml [29] of the same compound?
**A.** The Cells/ml was 0.5 X 10^6 Cells/ml.

**Q.** And the Cells/ml [30]?
**A.** The Cells/ml was 0.41 X 10^6 Cells/ml.

**Q.** And the Cells/ml [31]?
**A.** The Cells/ml was 0.54 X 10^6 Cells/ml.

**Q.** What about the Cells/ml [32] of the same compound?
**A.** The Cells/ml was 0.6 X 10^6 Cells/ml.

**Q.** What about the Cells/ml (second individual, (-) PHA, 20 mM) of the same compound?
**A.** The Cells/ml was 0.5 X 10^6 Cells/ml.

**Q.** What does the source list for `COC(=O)CCC(=O)CC(C)=O` [Succinylacetone Methyl Ester, methyl 4-6-dioxoheptanoate]?
**A.** viability (about 6.7 mM): little viability; Cells/ml [1]: 0.48 X 10^6 Cells/ml; Cells/ml [2]: 0.32 X 10^6 Cells/ml; Cells/ml [3]: 0.37 X 10^6 Cells/ml; Cells/ml [4]: 0.4 X 10^6 Cells/ml; Cells/ml [5]: 0.38 X 10^6 Cells/ml; Cells/ml [6]: 0.4 X 10^6 Cells/ml; Cells/ml [7]: 0.3 X 10^6 Cells/ml; Cells/ml [8]: 0.13 X 10^6 Cells/ml; Cells/ml [9]: 0.60 X 10^6 Cells/ml; Cells/ml [10]: 0.36 X 10^6 Cells/ml; Cells/ml [11]: 0.60 X 10^6 Cells/ml; Cells/ml [12]: 0.37 X 10^6 Cells/ml; Cells/ml [13]: 0.35 X 10^6 Cells/ml; Cells/ml [14]: 0.34 X 10^6 Cells/ml; Cells/ml [15]: 0.36 X 10^6 Cells/ml; Cells/ml [16]: 0.15 X 10^6 Cells/ml; Cells/ml [17]: 0.50 X 10^6 Cells/ml; Cells/ml [18]: 0.50 X 10^6 Cells/ml; Cells/ml [19]: 0.40 X 10^6 Cells/ml; Cells/ml [20]: 0.55 X 10^6 Cells/ml; Cells/ml [21]: 0.52 X 10^6 Cells/ml; Cells/ml [22]: 0.39 X 10^6 Cells/ml; Cells/ml [23]: 0.42 X 10^6 Cells/ml; Cells/ml [24]: 0.24 X 10^6 Cells/ml; Cells/ml [25]: 0.5 X 10^6 Cells/ml; Cells/ml [26]: 0.51 X 10^6 Cells/ml; Cells/ml [27]: 0.43 X 10^6 Cells/ml; Cells/ml [28]: 0.53 X 10^6 Cells/ml; Cells/ml [29]: 0.46 X 10^6 Cells/ml; Cells/ml [30]: 0.48 X 10^6 Cells/ml; Cells/ml [31]: 0.42 X 10^6 Cells/ml; Cells/ml [32]: 0.23 X 10^6 Cells/ml
